Measured values reported in patent publication US10077273B2, “SHMT inhibitors” (The Trustees of Princeton University, priority 2016, dated 2018).
pIC50: −log10 of the molar value. Read-outs that look alike come from different tables or passages of the source.

How the values were obtained:
[1] = test system: human colon carcinoma HCT-116 WT cells; assay: Cell growth assay (resazurin), HCT-116 wild-type; type: cell-based; details: for pIC50: Homo sapiens, HCT-116, Table 2
Description: The described cell lines for Examples 8 and 9 are cultured in 96-well plates in Dulbecco's modified eagle media (DMEM) without pyruvate (CELLGRO) with 10% dialysed fetal bovine serum (Invitrogen) in 5% CO2 at 37° C. Approximately 2,500 cells are plated in each well in 90 uL of media. After 24 hours cells are treated with various concentrations of inhibitor (time=0 hours), with or without formate. Growth was assessed at multiple time points (time=0, 24, 48, 72 hours) through measurement of fluorescence at 595 nm (excitation at 535 nm) on a BioTek micro titer plate reader after incubation with resazurin (0.01 mg/mL for 1.5 hours). IC50 curves are generated from percent inhibition of growth at 72 hours. […]

[2] = test system: HCT cells; assay: Formate rescue assay in cell growth; type: cell-based, human; details: Table 2
Description: Application of formate is shown to rescue the anti-growth effect in certain human cells treated with SHMT inhibitors in a cell growth assay.
The described cell lines for Examples 8 and 9 are cultured in 96-well plates in Dulbecco's modified eagle media (DMEM) without pyruvate (CELLGRO) with 10% dialysed fetal bovine serum (Invitrogen) in 5% CO2 at 37° C. Approximately 2,500 cells are plated in each well in 90 uL of media. After 24 hours cells are treated with various concentrations of inhibitor (time=0 hours), with or without formate. Growth was assessed at multiple time points (time=0, 24, 48, 72 hours) through measurement of fluorescence at 595 nm (excitation at 535 nm) on a BioTek micro titer plate reader after incubation with resazurin (0.01 mg/mL for 1.5 hours). IC50 curves are generated from percent inhibition of growth at 72 hours.

[3] = LogP value; type: physicochemical; details: Table 2; head prints (μM)
[4] = Liver microsome assay (metabolic stability); type: in vitro ADME; details: male, CD-1, mouse, pooled liver microsomes
Description: The following master solution was prepared before compound addition:
Two separate experiments were performed as follows: a) With Cofactors (NADPH and UDPGA): 40 μL of 10 mM NADPH and 40 μL of 20 mM UDPGA were added to the incubations. The final concentrations of microsomes, NADPH and UDPGA were 0.5 mg/mL, 1 mM and 2 mM, respectively. b) Without Cofactors (NADPH and UDPGA): 10 μL of 20 mg/mL liver microsomes and 80 μL of ultra-pure water were added to the incubations. The final concentration of microsomes was 0.5 mg/mL. The mixture was pre-warmed at 37° C. for 5 minutes.
The reaction was started with the addition of 4 μL of 200 μM control compound or test compound solution. Verapamil was used as positive control in this study. The final concentration of test compound or control compound was 2 μM. The incubation solution was incubated in water bath at 37° C. Aliquots of 50 μL were taken from the reaction solution at 0.5, 5, 15, 30, 45 and 60 minutes. The reaction was stopped by the addition of 5 volumes of cold acetonitrile with IS (100 nM alprazolam, 200 nM caffeine and 100 nM tolbutamide). Samples were centrifuged at 3,220 g for 40 minutes. Aliquot of 100 μL of the supernatant was mixed with 100 μL of ultra-pure H2O and then used for LC-MS/MS analysis. The in vitro half-life (in vitro t1/2) was determined from the slope value of the LC-MS signal of the test compound.

[5] = test system: HCT-116 ΔSHMT2 cells; assay: Cell growth assay, HCT-116 SHMT2 deletion (knock-out) cells; type: cell-based, human; details: FIG. 3B; increased potency versus native cells
Description: Inhibitors of SHMT were evaluated in various cancer cell lines, in the presence and absence of mutations in mitochondrial folate pathway enzymes.
To analyze the effects of inhibition on each isoform independently, SHMT1 and SHMT2 HCT-116 deletion clones were used.

[6] = biological target: human SHMT2 (Homo sapiens, UniProt P34897)
Description: (§2) For the SHMT1 and SHMT2 in vitro enzymatic assays, the rate of 5,10-methylene tetrahydrofolate formation catalyzed by SHMT1/2 was indirectly evaluated by coupling with excess MTHFD2, which converts NAD+ to NADH allowing for reaction monitoring by absorption at 340 nm. […] Inhibition of initial reaction velocity was determined by adding various inhibitors at different concentrations and monitored as described. IC50 may be calculated based on this assay.

[7] = biological target: human SHMT1 (Homo sapiens, UniProt P34896); details: read-out: SHMT1 IC50; Table 3
Description: as §2

[8] = test system: human pancreatic cell line 8988T; assay: Growth of pancreatic cancer cell line 8988T; type: cell-based; details: 8988T cells
[9] = test system: Su-DHL4 cells; assay: Apoptosis by Annexin V surface staining, flow cytometry; type: cell-based
From the text: In contrast, cell growth is further decreased in Su-DHL4 cells by addition of formate. This can be further exacerbated by removal of glycine from the media. […] Using flow cytometry, apoptosis of Su-DHL4 cells were studied with AnnexinV surface staining (FIGS. 12D and 12E).

[10] = test system: Jurkat cells; assay: Cellular growth assay, Jurkat; type: cell-based
Description: (§1) Jurkat, REH, Farage, Daudi, Su-DHL2, Su-DHL-4, Su-DHL-6 cells were purchased from ATCC. Cells were subcultured in RPMI supplemented with 10% FBS. For growth assays, cells were seeded at 2×10^5/mL in 5 mL growth media in 12.5 cm flasks. Media was supplemented with sodium formate (1 mM), additional glycine (100 mg/L) and an SHMTi (5 uM). Cells were sampled daily, and counted using trypan blue staining and light microscopy.

[11] = test system: Su-DHL4 cells; assay: Cellular growth, SU-DHL4; type: cell-based; details: SU-DHL4, FIG. 12C legend
Description: as §1

[12] = test system: Su-DHL-2 cells; assay: Cellular growth assay, Su-DHL-2; type: cell-based
Description: as §1

[13] = replicate 1, read-out: CLint (replicate 1)
[14] = replicate 2, read-out: CLint (replicate 2)

human SHMT2, sequence (P34897 30-504 limits assumed): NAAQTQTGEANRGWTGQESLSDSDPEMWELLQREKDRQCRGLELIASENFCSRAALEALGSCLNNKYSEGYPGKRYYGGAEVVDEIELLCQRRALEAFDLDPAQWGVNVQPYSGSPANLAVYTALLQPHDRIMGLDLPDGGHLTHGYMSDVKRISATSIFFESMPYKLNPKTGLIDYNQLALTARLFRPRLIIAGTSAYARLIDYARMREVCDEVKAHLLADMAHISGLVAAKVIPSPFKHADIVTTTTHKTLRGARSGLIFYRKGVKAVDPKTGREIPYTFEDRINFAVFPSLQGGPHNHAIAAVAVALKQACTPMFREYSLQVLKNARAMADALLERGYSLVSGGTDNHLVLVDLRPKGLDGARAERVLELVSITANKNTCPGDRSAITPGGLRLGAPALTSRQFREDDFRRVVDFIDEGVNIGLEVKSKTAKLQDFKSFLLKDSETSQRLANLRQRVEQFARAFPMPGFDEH
human SHMT1, sequence (P34896 2-483 limits assumed): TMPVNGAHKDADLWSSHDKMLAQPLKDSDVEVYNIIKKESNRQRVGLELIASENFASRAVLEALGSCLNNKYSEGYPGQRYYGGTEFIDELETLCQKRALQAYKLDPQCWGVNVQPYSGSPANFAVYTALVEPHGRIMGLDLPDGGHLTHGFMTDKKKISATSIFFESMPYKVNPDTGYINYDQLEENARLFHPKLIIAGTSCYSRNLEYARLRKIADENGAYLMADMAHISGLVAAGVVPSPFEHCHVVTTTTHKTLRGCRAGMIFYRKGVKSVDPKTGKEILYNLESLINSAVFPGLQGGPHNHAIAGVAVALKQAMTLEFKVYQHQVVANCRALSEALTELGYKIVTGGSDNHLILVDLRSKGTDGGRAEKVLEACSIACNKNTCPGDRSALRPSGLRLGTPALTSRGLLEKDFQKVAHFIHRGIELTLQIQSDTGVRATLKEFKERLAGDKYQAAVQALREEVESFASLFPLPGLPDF

Cc1n[nH]c2c1C(c1cc(C#CCCC(=O)N[C@@H](CCC(=O)O)C(=O)O)cc(C(F)(F)F)c1)(C(C)C)C(C#N)=C(N)O2 (stereo partly shown) [Compound 69]
pIC50 [1]: 4.00 | % formate rescue [2]: 96.41%

Cc1n[nH]c2c1C(c1cc(C#CCCO)cc(C(F)(F)F)c1)(C(C)C)C(C#N)=C(N)O2 (stereo not shown) [Compound 2]
logP [3]: 3.46 | pIC50 [1]: 5.16 | % formate rescue [2]: 100.58%

Cc1n[nH]c2c1C(c1cc(Br)cc(C(F)(F)F)c1)(C(F)(F)F)C(C#N)=C(N)O2 (stereo not shown)
microsomal CLint at 2 μM [4, 13]: 87.8 µL/min/mg | microsomal CLint at 2 μM [4, 14]: 71.5 µL/min/mg

Cc1n[nH]c2c1C(c1cc(C#CCCCO)cc(C(F)(F)F)c1)(C(C)C)C(C#N)=C(N)O2 (stereo not shown) [Compound 61, 6-amino-4-(3-(5-hydroxypent-1-yn-1-yl)-5-(trifluoromethyl)phenyl)-4-isopropyl-3-methyl-1,4-dihydropyrano[2,3-c]pyrazole-5-carbonitrile]
growth (proliferation) of HCT116 cells ([1]; native HCT116, FIG. 3A): inhibited growth | growth of SHMT2 knock-out HCT116 cells [5]: inhibited growth

Cc1n[nH]c2c1C(c1cc(C#CCCCN)cc(C(F)(F)F)c1)(C(C)C)C(C#N)=C(N)O2 (stereo not shown) [Compound 8]
pIC50 [1]: 5.69 | % formate rescue [2]: 80.65%

Cc1n[nH]c2c1C(c1cc(C#CCCCO)cc(C(F)(F)F)c1)(C(C)C)C(C#N)=C(N)O2 (stereo not shown) [Compound 1]
logP [3]: 3.91 | microsomal CLint at 2 μM [4, 13]: 597 µL/min/mg | microsomal CLint at 2 μM [4, 14]: 776 µL/min/mg

COc1cccc(C2(C3CCC3)C(C#N)=C(N)Oc3[nH]nc(C)c32)c1 (stereo not shown) [HK-2]
pIC50 ([6]; read-out: SHMT2 IC50, Table 3): < 5.30 | pIC50 [7]: < 5.30

Cc1n[nH]c2c1C(c1cc(C#CCCCO)cc(C(F)(F)F)c1)(C(C)C)C(C#N)=C(N)O2 (stereo not drawn) [1 (enantiomeric ally active peak)]
pIC50 [1]: 5.87 | % formate rescue [2]: 94.96%

Cc1n[nH]c2c1C(c1cc(CO)cc(-c3ccccc3)c1)(C(C)C)C(C#N)=C(N)O2 (stereo not shown) [HK-X2]
concentrations that impair cell growth [8]: < 100 nM | apoptotic fraction of cells ([9]; inhibitor alone, untreated 2%): 8% | apoptotic fraction of cells ([9]; inhibitor in the presence of formate): 15% | IC80 ([10]; FIG. 12C legend): 2.5 µM | IC70 [11]: 5 µM

COC(=O)CCC#Cc1cc(C(F)(F)F)cc(C2(C(C)C)C(C#N)=C(N)Oc3[nH]nc(C)c32)c1 (stereo not shown) [Compound 73]
logP [3]: 4.17 | pIC50 [1]: 4.95 | % formate rescue [2]: 97.33%

Cc1n[nH]c2c1C(c1cc(C#CCCC(=O)NC(C)(C)C(=O)O)cc(C(F)(F)F)c1)(C(C)C)C(C#N)=C(N)O2 (stereo not shown) [Compound 72]
logP [3]: 3.38 | pIC50 [1]: 3.70 | % formate rescue [2]: 98.35%

Cc1n[nH]c2c1C(c1cc(C#N)cc(C#CCCCO)c1)(C(C)C)C(C#N)=C(N)O2 (stereo not shown) [Compound 71]
pIC50 [1]: 5.30 | % formate rescue [2]: 97.81% | microsomal CLint at 2 μM [4, 13]: 285 µL/min/mg | microsomal CLint at 2 μM [4, 14]: 203 µL/min/mg

Cc1n[nH]c2c1C(c1cc(C#CCCC(=O)O)cc(C(F)(F)F)c1)(C(C)C)C(C#N)=C(N)O2 (stereo not shown) [Compound 4]
pIC50 [1]: 4.82 | % formate rescue [2]: 93.35% | pIC50 ([6]; read-out: SCHMT2 IC50, Table 2): 9.77

Cc1n[nH]c2c1C(c1cc(C#CCCC(=O)N[C@H](CCC(=O)O)C(=O)O)cc(C(F)(F)F)c1)(C(C)C)C(C#N)=C(N)O2 (stereo partly shown) [Compound 70]
logP [3]: 2.49 | pIC50 [1]: 4.00 | % formate rescue [2]: 94.89%

Cc1n[nH]c2c1[C@@](c1cc(C(F)(F)F)cc(C(F)(F)F)c1)(C(C)C)C(C#N)=C(N)O2 [HK-16 (PK-2)]
growth as assessed by cell count ([10]; 5 μM): inhibited | rescue of growth inhibition by formate ([10]; 5 μM + 1 mM sodium formate): significantly rescued | growth as assessed by cell count ([12]; Su-DHL-2, 5 μM): inhibited | rescue of growth inhibition by formate ([12]; Su-DHL-2, 5 μM + 1 mM formate): not rescued

Cc1n[nH]c2c1C(c1cc(C#CCCCO)cc(CO)c1)(C(C)C)C(C#N)=C(N)O2 (stereo not shown) [Compound 74]
microsomal CLint at 2 μM [4, 13]: 68 µL/min/mg | microsomal CLint at 2 μM [4, 14]: 68 µL/min/mg

Cc1n[nH]c2c1C(c1cc(C#CCCC(N)=O)cc(C(F)(F)F)c1)(C(C)C)C(C#N)=C(N)O2 (stereo not shown) [Compound 11]
pIC50 [1]: 5.22 | % formate rescue [2]: 96.98% | microsomal CLint at 2 μM [4, 13]: 764 µL/min/mg | microsomal CLint at 2 μM [4, 14]: 541 µL/min/mg

Cc1n[nH]c2c1C(c1cc(C#N)cc(C#CCCC(=O)O)c1)(C(C)C)C(C#N)=C(N)O2 (stereo not shown) [Compound 68]
pIC50 [1]: 4.00 | % formate rescue [2]: 106.02%

Cc1n[nH]c2c1C(C)(c1cccc([N+](=O)[O-])c1)C(C#N)=C(N)O2 (stereo not shown) [GD-07]
pIC50 ([6]; read-out: SHMT2 IC50, Table 3): < 5.30
